The record followed here is PubChem BioAssay AID743232 (The Scripps Research Institute Molecular Screening Center, 2013).

The source made the active and inactive calls. The rule behind the calls is not given here.

This test has as its system Ga16-expressing cells (no TAAR1), calcium fluorescence, counterscreen. Kind of test: nonselective Ga16 agonists, potency, late-stage follow-up, counter-screen for TAAR1 agonist project, cell-based, fluorescence, dose response (AID 743232). On the technique in general: A counterscreen serves to expose hits that act by an unwanted route or on another target.
As a reminder, the EC50 is the concentration that produces a half-maximal response. As to `CC(=NCCc1ccccc1)C1CCOC1=O` (stereo unspecified), the EC50 was > 29.9 µM (inactive).

In the case of `NC(N)=Nc1cc2ccccc2c2ccccc12`, the EC50 was > 29.9 µM (inactive).

Regarding `Nc1nc(Nc2cccc(F)c2)nc2ccccc12`, the EC50 is > 29.9 µM (inactive).

For the molecule `Cc1cc(C)n(C(CC(=O)N2CCc3ccccc3C2)C(=O)O)n1` (stereo unspecified), the EC50 was > 29.9 µM (inactive).

For `O=C(CCN1CCC(c2ccccc2)C1)c1ccc2c(c1)OCCO2` (stereo unspecified), the EC50 was > 29.9 µM (inactive).

Take `c1ccc(CCn2nnnc2C(c2cccs2)N2CCN(Cc3ccc4c(c3)OCO4)CC2)cc1` (stereo unspecified): the EC50 was > 29.9 µM (inactive).

Consider `CCOC(=O)C(NC(C)=O)(N1CCc2ccccc2C1)C(F)(F)F` (stereo unspecified), for which the EC50 was > 29.9 µM (inactive).

Regarding `O=C(CCN1CCc2ccccc2CC1)c1ccc2c(c1)OCCO2`, the EC50 is > 29.9 µM (inactive).

On to `Cc1cc(N(C)C)nc(Nc2ccccc2)n1`, for which the EC50 was > 29.9 µM (inactive).

Turning to `CC(=C1C(=O)c2ccccc2C1=O)N1CCc2ccccc2C1`, the EC50 was > 29.9 µM (inactive).

For `OCCNc1nc(Nc2ccc(O)cc2)nc2ccccc12`, the EC50 was > 29.9 µM (inactive).

As to `O=c1[nH]cc(NCCc2ccccc2)c(=O)[nH]1`, the EC50 is > 29.9 µM (inactive).

As to `O=C(C(=O)N1CCc2ccccc2C1)c1cn(CC(=O)N2CCCCC2)c2ccccc12`, the EC50 was > 29.9 µM (inactive).

In the case of `CCOC(=O)C(NC(=O)CC)(N1CCc2ccccc2C1)C(F)(F)F` (stereo unspecified), the EC50 is > 29.9 µM (inactive).

Regarding `COc1cc(C(=O)CCN2CCC(c3ccccc3)C2)cc(OC)c1OC` (stereo unspecified), the EC50 is > 29.9 µM (inactive).

On to `c1ccc2c3c([nH]c2c1)CCNC3`, for which the EC50 was > 29.9 µM (inactive).

Regarding `Cc1[nH]c2ccccc2c1CN1CCc2ccccc2C1`, the EC50 is > 29.9 µM (inactive).

With `c1ccc(CCN2CN(CCCN3CCOCC3)c3nc4ccccc4n3C2)cc1`, the EC50 was > 29.9 µM (inactive).

On to `Nc1nc(Nc2ccccc2)nc2ccccc12`, for which the EC50 is > 29.9 µM (inactive).

On to `O=C(Nc1ccncc1)Nc1ccc(F)cc1`, for which the EC50 is > 29.9 µM (inactive).

For `c1ccc2c(c1)CCN(c1nc3cc4c(cc3s1)OCO4)C2`, the EC50 is > 29.9 µM (inactive).

In the case of `NCc1c(O)ccc2ccccc12`, the EC50 is > 29.9 µM (inactive).

In the case of `O=C(CCN1CCC(c2ccccc2)C1)c1cccs1` (stereo unspecified), the EC50 was > 29.9 µM (inactive).

Turning to `NC(N)=NN=Cc1c(Cl)cccc1Cl`, the EC50 was > 29.9 µM (inactive).

On to `O=C(Nc1cccc2ccccc12)N1CCc2ccccc2C1`, for which the EC50 was > 29.9 µM (inactive).

As to `Cc1ccc(NC(=O)CCN2CCc3ccccc3C2)cc1`, the EC50 is > 29.9 µM (inactive).

In the case of `O=C(Nc1ccccc1)Nc1ccncc1`, the EC50 is > 29.9 µM (inactive).

As to `CC1(C)CCCN(C(=O)c2coc(=O)c(Br)c2)C1`, the EC50 is > 29.9 µM (inactive).

Regarding `O=C(CCCCl)N1CCc2[nH]c3ccccc3c2C1`, the EC50 is > 29.9 µM (inactive).

Regarding `OCCNc1nc(Nc2cccc(O)c2)nc2ccccc12`, the EC50 was > 29.9 µM (inactive).

Consider `O=C(Nc1cccnc1)Nc1cccc(F)c1`, for which the EC50 was > 29.9 µM (inactive).
